Results reported in article PMC6152192, “Novel Methylselenoesters as Antiproliferative Agents” (Molecules : A Journal of Synthetic Chemistry and Natural …, 2017).
Several values for one entry are separate records, joined by “and”; a condition that tells them apart may be missing. Identical values can stand only once.

Key:
Format in all cases: cell-based
[1] = test system: PC-3 (prostate adenocarcinoma); assay: MTT viability assay, PC-3; conditions: PC-3, 72 h, MTT; for CC50: read-out: LC50 (the source's name)
Description: (§1) The novel compounds were tested against a panel of different cancer lines: PC-3 (prostate adenocarcinoma), MCF7 (mammary adenocarcinoma), HTB-54 (lung carcinoma), K-562 (chronic myelogenous leukemia) and HT-29 (colorectal adenocarcinoma). Two non-malignant cell lines, BEAS-2B (bronchial epithelial) and 184B5 (mammary epithelial) were also included to evaluate the toxicity of the novel synthesized compounds. The antiproliferative activity was measured with the [3-(4,5-dimethylthiazol-2-yl)-2,5-diphenyltetrazolium bromide] (MTT) assay after 72 h treatment. Six concentrations ranging from 0.1 to 100 μM were tested. MSA is largely known as the main CH3SeH putative precursor and was therefore included as positive control. The following parameters were calculated: GI50 (concentration which reduces the growth by 50%), TGI (concentration completely inhibiting growth) and LC50 (concentration that kills 50% of the cells).
(§2) All cells were purchased from the American Type Culture Collection (ATCC, Barcelona, Spain). HT-29 (colorectal adenocarcinoma), HTB-54 (grade III lung carcinoma), MCF7 (mammary adenocarcinoma), PC-3 (grade IV prostate adenocarcinoma) and K-562 (chronic myelogenous leukemia) were cultured in RPMI (Gibco, Madrid, Spain), 10% FBS (Gibco), 100 units/mL penicillin and 100 μg/mL streptomycin (Gibco). BEAS-2B cell line (normal epithelial lung) was cultured in DMEM (Gibco), 10% FBS, 100 units/mL penicillin and 100 μg/mL streptomycin. 184B5 (normal mammary gland) cell line was cultured in DMEM:F12 supplemented with 5% FBS, 1 × ITS (Lonza, Barcelona, Spain), 100 nM hydrocortisone (Sigma-Aldrich), 2 mM sodium pyruvate (Lonza), 20 ng/mL EGF (Sigma-Aldrich), 0.3 nM trans-retinoic acid (Sigma-Aldrich), 100 units/mL penicillin and 100 µg/mL streptomycin. Cells were cultured at 37 °C under 5% CO2.
(§3) Cell viability after treatment was assessed by the well-known 3-(4,5-dimethyl-thiazol-2-yl)-2,5-diphenyltetrazolium bromide (MTT, Sigma-Aldrich) assay. Briefly, 10,000 cells were seeded in 96-well plates, treated and incubated for 72 h. Dilutions of the compounds in cell medium were freshly prepared from a 0.01 M stock in DMSO. After treatment, 50 μL of MTT solution in PBS (2 mg/mL) were added and cells were incubated for 4 h. Medium was removed and 150 μL of DMSO was added to dissolve the formed formazan crystals. Absorbance was read at 550 nm in a microplate absorbance reader (Sunrise, Tecan, Männedorf, Switzerland).

[2] = test system: MCF7 (mammary adenocarcinoma); assay: MTT viability assay, MCF7; conditions: MCF7, 72 h, MTT; for CC50: read-out: LC50 (the source's name)
Description: as §1, §2, §3

[3] = test system: 184B5 (non-malignant mammary epithelium); assay: MTT viability assay, 184B5; conditions: 184B5 non-malignant, 72 h, MTT; for CC50: read-out: LC50 (the source's name)
Description: as §1, §2, §3

[4] = test system: K-562 (chronic myelogenous leukemia); assay: MTT viability assay, K-562; conditions: K-562, 72 h, MTT; for CC50: read-out: LC50 (the source's name)
Description: as §1, §2, §3

[5] = test system: HT-29 (colorectal adenocarcinoma); assay: MTT viability assay, HT-29; conditions: HT-29, 72 h, MTT; for CC50: read-out: LC50 (the source's name)
Description: as §1, §2, §3

HTB-54 (lung carcinoma) = assay: MTT viability assay, HTB-54; conditions: HTB-54, 72 h, MTT; for CC50: read-out: LC50 (the source's name)
Description: as §1, §2, §3

[6] = test system: BEAS-2B (non-malignant bronchial epithelial); assay: MTT viability assay, BEAS-2B; conditions: BEAS-2B non-malignant, 72 h, MTT; for CC50: read-out: LC50 (the source's name)
Description: as §1, §2, §3

Substance | GI50 [1] | TGI [1] [µM] | CC50 [1] [µM] | GI50 [2] [µM] | TGI [2] [µM] | CC50 [2] [µM] | GI50 [3] [µM] | TGI [3] [µM] | CC50 [3] [µM] | GI50 [4] [µM] | TGI [4] [µM] | CC50 [4] [µM] | GI50 [5] [µM] | TGI [5] [µM] | CC50 [5] [µM] | GI50 (HTB-54 (lung carcinoma)) [µM] | CC50 (HTB-54 (lung carcinoma)) [µM] | GI50 [6] [µM] | TGI [6] [µM] | CC50 [6] [µM] | further results
Dimethyl 5-cyano-1,3-benzenedicarboselenoate [Compound 14] | 7.2 ± 3.5 µM | 32.3 ± 3.7 | 68.7 ± 3 | 4.9 ± 0.8 | 8.4 ± 1.1 | 54.4 ± 2.7 | 3.8 ± 0.7 | 6.5 ± 0.6 | 9.3 ± 0.7 | 29.9 ± 0.6 | 54.7 ± 0.7 | 79.5 ± 0.7 | 3.8 ± 0.1 | 7.9 ± 0.7 | > 100 | 3.8 ± 0.6 | 66.5 ± 4.5 | 3.2 ± 0.7 | 5.5 ± 0.5 | 7.8 ± 0.3 | –
Methyl 1,3-benzodioxole-5-carboselenoate [Compound 8] | 5.7 ± 1.6 µM | 11.0 ± 3.1 | 96 ± 4.7 | 4.6 ± 0.5 | 9.2 ± 1.3 | 68.7 ± 2.5 | 3.7 ± 0.3 | 6.4 ± 0.2 | 9 ± 0.4 | 29.7 ± 4.7 | 62.6 ± 3.9 | 95.4 ± 4.9 | 5.9 ± 0.8 | 27.7 ± 4.5 | 81.1 ± 4 | 6 ± 0.9 | 77.1 ± 4.9 | 3.1 ± 0.3 | 5.6 ± 0.6 | 8 ± 1.1 | TGI (HTB-54 (lung carcinoma)): 23.2 ± 2.6 µM
Methyl 2-(4-pyridyl)thiazole-4-carboselenoate [Compound 12] | > 10 µM and 16.9 µM | 50.9 ± 4.9 | 85 ± 4.7 | 4.4 ± 1 | 8.1 ± 1.7 | 56.2 ± 9.6 | 3.4 ± 0.3 | 6.5 ± 0.8 | 9.6 ± 2.8 | 82 ± 4.4 | >100 | > 100 | 5.1 ± 0.1 | 14.2 ± 6.6 | > 100 | 9.8 ± 5.1 | 80.5 ± 3.5 | 3.7 ± 1.3 | 6.4 ± 1.3 | 9.2 ± 1 | TGI (HTB-54 (lung carcinoma)): 44.9 ± 3.7 µM
Methyl 2-phenyl-4-quinolinecarboselenoate [Compound 10] | 4.4 ± 1.3 µM | – | 70.9 ± 5.2 | 5.6 ± 1.3 | 51.3 ± 3.7 | > 100 | 3.9 ± 0.7 | 6.3 ± 0.5 | 8.7 ± 0.4 | 9.7 ± 4.9 | 59.1 ± 3.5 | > 100 | 4.1 ± 0.3 | 7.5 ± 0.7 | 35 ± 2.4 | 5.9 ± 1.1 | 64.4 ± 4.2 | 3.1 ± 0.5 | 5.5 ± 0.4 | 7.8 ± 0.5 | TGI (HTB-54 (lung carcinoma)): 16.7 ± 2.3 µM
